# Tests used:
# [1] = molecular target: T1, Protein deacetylase HDAC6 (Homo sapiens, UniProt Q9UBN7); test: Inhibition of HDAC6 (unknown origin)
# T1 sequence (Q9UBN7 whole entry): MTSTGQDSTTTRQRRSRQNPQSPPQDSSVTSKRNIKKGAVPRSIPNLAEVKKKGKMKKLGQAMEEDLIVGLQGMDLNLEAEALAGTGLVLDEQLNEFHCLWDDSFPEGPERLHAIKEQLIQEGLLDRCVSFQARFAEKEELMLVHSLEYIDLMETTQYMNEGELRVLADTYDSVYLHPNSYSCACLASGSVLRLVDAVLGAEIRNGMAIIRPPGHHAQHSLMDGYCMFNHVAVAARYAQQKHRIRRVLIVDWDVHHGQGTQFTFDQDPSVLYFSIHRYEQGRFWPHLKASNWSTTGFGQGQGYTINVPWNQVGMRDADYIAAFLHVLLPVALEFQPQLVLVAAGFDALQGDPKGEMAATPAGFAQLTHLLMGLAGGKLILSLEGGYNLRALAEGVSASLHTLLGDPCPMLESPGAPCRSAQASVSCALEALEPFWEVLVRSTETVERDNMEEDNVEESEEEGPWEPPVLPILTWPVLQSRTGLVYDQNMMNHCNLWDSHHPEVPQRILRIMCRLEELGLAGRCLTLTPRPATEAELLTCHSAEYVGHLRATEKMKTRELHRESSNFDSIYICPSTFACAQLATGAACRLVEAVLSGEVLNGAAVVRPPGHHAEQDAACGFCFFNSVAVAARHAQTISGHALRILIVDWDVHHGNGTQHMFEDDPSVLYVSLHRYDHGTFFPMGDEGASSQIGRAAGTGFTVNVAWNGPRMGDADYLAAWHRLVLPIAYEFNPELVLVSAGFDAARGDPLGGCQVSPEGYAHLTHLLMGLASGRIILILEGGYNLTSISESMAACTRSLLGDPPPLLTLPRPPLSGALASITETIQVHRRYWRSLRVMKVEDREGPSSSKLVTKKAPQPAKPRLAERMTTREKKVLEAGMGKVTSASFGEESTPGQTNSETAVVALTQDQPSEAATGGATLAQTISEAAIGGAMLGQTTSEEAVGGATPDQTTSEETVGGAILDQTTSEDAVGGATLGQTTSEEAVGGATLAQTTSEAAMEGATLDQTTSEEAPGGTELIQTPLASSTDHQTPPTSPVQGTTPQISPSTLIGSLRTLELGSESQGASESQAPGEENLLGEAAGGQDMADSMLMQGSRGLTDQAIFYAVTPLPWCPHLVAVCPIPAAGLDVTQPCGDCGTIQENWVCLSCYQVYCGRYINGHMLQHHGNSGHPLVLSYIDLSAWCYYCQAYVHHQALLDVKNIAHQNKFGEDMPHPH
# Histone deacetylase 11 = molecular target: T2, Histone deacetylase 11 (Homo sapiens, UniProt Q96DB2); test: Inhibition of HDAC11 (unknown origin)
# T2 sequence (Q96DB2 whole entry): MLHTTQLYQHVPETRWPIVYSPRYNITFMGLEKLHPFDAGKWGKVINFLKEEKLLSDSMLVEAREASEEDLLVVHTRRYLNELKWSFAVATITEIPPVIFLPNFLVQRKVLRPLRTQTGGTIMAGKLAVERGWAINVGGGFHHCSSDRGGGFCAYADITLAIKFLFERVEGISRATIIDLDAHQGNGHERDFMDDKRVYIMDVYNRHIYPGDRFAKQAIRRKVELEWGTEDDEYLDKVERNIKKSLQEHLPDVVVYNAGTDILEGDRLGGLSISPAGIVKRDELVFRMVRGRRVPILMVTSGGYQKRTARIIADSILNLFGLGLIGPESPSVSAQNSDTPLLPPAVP
# Histone deacetylase 9 = Histone deacetylase 9 (Homo sapiens, UniProt Q9UKV0); test: Inhibition of HDAC9 (unknown origin)
# Sequence of Histone deacetylase 9 (Q9UKV0 whole entry): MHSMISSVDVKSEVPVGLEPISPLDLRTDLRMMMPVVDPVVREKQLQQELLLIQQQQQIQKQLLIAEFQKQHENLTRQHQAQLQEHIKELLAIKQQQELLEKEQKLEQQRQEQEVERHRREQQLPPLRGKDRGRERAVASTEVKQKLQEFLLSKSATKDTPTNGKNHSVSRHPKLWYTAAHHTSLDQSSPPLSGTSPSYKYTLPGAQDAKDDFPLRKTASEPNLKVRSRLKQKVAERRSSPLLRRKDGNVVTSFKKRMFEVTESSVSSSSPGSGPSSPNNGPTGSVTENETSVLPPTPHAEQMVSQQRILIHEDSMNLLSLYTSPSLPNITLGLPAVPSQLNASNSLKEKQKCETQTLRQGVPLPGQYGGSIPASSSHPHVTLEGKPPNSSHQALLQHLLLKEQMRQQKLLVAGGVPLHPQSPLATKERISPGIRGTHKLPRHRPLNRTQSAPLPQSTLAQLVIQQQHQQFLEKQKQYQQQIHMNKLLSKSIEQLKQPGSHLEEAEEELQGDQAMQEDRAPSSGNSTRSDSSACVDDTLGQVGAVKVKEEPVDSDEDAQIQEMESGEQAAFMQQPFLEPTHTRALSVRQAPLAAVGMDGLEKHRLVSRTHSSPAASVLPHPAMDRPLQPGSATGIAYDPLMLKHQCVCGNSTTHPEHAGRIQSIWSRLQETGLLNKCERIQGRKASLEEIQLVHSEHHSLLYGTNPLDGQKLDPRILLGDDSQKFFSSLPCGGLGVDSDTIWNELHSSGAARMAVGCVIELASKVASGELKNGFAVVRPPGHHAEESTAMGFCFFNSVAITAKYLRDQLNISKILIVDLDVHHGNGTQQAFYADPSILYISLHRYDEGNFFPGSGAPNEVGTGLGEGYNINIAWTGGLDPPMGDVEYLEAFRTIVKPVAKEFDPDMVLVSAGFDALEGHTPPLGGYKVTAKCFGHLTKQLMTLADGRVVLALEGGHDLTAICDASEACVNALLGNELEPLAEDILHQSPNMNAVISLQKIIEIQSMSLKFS
# Histone deacetylase 7 = molecular target: T3, Histone deacetylase 7 (Homo sapiens, UniProt Q8WUI4); test: Inhibition of HDAC7 (unknown origin)
# T3 sequence (Q8WUI4 whole entry): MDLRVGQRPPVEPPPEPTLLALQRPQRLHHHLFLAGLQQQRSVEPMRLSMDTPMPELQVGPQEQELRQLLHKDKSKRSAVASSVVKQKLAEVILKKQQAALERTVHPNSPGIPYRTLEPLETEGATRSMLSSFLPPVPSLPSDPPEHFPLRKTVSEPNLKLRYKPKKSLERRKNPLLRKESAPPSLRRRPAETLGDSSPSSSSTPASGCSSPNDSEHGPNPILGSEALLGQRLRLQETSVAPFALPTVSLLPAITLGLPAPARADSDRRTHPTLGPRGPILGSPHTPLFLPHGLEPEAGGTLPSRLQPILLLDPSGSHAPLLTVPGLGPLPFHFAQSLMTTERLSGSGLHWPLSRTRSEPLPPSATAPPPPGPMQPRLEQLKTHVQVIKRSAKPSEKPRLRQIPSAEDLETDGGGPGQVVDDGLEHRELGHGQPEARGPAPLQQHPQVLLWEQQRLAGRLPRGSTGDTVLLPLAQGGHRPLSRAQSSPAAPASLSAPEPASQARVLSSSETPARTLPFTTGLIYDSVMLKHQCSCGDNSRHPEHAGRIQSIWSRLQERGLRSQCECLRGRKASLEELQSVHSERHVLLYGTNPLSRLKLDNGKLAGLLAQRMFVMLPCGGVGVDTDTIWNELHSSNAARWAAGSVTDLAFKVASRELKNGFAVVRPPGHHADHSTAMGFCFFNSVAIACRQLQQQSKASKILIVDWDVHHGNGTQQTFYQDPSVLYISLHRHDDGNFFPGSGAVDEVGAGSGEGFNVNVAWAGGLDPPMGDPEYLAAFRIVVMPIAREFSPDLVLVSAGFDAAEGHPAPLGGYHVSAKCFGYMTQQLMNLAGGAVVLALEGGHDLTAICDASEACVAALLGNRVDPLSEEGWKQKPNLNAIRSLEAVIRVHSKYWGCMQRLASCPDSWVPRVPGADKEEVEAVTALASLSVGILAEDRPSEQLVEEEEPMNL
# Histone deacetylase 2 = Histone deacetylase 2 (Homo sapiens, UniProt Q92769); test: Inhibition of HDAC2 (unknown origin)
# Sequence of Histone deacetylase 2 (Q92769 whole entry): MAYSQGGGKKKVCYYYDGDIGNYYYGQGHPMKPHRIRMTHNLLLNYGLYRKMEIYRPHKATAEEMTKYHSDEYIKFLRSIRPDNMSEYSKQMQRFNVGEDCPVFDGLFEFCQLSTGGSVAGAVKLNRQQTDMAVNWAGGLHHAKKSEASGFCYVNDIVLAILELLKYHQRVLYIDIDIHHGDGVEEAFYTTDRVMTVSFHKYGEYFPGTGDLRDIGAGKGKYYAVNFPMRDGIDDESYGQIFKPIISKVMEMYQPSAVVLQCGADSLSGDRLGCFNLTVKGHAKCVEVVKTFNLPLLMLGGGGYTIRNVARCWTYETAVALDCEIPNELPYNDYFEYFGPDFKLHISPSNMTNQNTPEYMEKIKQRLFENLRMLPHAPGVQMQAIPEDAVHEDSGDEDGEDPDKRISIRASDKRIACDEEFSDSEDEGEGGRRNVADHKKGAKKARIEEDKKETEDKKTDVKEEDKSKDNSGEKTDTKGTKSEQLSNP
# Histone deacetylase 1 = Histone deacetylase 1 (Homo sapiens, UniProt Q13547); test: Inhibition of HDAC1 (unknown origin)
# Sequence of Histone deacetylase 1 (Q13547 whole entry): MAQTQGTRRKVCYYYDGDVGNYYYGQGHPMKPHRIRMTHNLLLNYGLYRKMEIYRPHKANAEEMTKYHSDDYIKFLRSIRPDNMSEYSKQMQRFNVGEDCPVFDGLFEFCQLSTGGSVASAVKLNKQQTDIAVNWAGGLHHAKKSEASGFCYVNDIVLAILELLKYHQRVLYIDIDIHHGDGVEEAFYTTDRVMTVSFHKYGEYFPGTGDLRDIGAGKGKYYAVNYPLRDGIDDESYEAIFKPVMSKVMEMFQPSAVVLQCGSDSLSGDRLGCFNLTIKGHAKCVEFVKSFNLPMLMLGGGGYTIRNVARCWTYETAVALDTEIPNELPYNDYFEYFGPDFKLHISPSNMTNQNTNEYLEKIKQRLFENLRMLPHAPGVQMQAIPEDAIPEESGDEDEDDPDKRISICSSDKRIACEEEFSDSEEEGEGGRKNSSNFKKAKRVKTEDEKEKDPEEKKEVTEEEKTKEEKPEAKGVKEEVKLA
# Histone deacetylase 5 = Histone deacetylase 5 (Homo sapiens, UniProt Q9UQL6); test: Inhibition of HDAC5 (unknown origin)
# Sequence of Histone deacetylase 5 (Q9UQL6 whole entry): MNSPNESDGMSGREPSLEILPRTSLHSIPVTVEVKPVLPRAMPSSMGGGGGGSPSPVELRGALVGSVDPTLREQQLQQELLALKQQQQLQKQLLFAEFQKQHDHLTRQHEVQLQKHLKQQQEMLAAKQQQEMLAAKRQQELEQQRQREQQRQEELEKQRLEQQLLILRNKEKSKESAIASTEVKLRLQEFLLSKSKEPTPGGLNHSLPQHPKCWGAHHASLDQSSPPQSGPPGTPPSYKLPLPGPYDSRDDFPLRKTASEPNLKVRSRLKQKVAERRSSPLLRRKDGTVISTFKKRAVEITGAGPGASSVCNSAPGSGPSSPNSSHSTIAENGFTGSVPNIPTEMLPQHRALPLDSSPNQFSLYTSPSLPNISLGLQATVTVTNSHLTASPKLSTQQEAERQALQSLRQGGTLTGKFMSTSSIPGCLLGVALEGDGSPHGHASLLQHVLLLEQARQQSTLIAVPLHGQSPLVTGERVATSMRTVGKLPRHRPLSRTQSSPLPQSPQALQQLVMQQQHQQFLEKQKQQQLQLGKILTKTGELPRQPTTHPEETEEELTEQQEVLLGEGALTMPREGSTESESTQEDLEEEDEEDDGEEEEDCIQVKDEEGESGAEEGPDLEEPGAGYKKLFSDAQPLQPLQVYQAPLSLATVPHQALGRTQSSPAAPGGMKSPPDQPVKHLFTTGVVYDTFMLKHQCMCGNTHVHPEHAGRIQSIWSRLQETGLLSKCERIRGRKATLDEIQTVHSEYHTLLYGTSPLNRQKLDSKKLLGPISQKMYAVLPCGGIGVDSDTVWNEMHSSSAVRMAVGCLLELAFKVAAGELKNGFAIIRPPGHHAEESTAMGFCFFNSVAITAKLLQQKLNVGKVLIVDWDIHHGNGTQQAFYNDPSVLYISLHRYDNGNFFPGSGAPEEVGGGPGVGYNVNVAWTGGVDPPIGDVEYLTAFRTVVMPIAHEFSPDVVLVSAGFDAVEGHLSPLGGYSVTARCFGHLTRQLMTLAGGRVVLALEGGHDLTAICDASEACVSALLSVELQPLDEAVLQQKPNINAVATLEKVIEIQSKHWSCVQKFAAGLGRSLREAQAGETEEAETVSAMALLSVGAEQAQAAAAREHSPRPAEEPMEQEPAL
# Histone deacetylase 3 = Histone deacetylase 3 (Homo sapiens, UniProt O15379); test: Inhibition of HDAC3 (unknown origin)
# Sequence of Histone deacetylase 3 (O15379 whole entry): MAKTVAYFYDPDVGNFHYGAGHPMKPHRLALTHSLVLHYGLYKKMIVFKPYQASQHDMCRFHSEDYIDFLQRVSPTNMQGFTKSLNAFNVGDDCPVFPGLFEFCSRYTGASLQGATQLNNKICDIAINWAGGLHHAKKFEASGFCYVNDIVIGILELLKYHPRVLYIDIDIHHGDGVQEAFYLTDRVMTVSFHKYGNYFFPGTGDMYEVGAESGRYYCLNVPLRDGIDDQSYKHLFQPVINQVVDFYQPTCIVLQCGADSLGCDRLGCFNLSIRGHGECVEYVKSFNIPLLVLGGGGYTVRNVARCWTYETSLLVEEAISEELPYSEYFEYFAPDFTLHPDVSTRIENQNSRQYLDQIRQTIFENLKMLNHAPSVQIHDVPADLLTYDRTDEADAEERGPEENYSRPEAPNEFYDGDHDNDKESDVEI
# [2] = molecular target: T4, Polyamine deacetylase HDAC10 (Homo sapiens, UniProt Q969S8); test: Inhibition of HDAC10 (unknown origin)
# T4 sequence (Q969S8 whole entry): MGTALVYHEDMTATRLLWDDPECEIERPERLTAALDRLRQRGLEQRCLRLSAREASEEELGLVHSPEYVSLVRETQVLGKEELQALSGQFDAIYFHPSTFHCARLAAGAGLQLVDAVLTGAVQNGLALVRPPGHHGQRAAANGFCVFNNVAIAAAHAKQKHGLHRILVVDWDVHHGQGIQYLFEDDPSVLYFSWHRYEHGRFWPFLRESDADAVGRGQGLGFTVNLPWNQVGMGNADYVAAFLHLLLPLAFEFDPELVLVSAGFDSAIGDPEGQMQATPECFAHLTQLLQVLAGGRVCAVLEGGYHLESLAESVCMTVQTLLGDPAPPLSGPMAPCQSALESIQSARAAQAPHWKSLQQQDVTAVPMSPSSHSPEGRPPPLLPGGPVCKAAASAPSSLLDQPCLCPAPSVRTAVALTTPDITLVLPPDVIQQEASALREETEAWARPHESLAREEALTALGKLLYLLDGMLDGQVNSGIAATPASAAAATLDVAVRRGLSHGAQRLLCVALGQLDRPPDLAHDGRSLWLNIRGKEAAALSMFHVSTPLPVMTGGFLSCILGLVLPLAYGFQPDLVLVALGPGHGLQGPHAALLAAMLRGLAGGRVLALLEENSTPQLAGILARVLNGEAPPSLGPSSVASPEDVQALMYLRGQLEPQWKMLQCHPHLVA
# Histone deacetylase 8 = molecular target: T5, Histone deacetylase 8 (Homo sapiens, UniProt Q9BY41); test: Inhibition of HDAC8 (unknown origin)
# T5 sequence (Q9BY41 whole entry): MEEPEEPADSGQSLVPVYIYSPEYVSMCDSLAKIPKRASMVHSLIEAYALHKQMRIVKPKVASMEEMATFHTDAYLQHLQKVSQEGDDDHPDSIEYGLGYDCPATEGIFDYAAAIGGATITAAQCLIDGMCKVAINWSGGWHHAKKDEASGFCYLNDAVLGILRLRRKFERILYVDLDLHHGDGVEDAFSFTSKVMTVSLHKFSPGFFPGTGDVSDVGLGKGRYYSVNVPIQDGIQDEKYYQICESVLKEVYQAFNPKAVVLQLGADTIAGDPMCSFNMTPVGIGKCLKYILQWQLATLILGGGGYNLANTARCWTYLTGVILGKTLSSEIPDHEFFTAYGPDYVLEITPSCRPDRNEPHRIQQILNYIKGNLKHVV
# MCF7 = test: Antiproliferative activity against human MCF7 cells assessed as reduction in cell viability; format: functional, cell-based
# Histone deacetylase 4 = Histone deacetylase 4 (Homo sapiens, UniProt P56524); test: Inhibition of HDAC4 (unknown origin)
# Sequence of Histone deacetylase 4 (P56524 whole entry): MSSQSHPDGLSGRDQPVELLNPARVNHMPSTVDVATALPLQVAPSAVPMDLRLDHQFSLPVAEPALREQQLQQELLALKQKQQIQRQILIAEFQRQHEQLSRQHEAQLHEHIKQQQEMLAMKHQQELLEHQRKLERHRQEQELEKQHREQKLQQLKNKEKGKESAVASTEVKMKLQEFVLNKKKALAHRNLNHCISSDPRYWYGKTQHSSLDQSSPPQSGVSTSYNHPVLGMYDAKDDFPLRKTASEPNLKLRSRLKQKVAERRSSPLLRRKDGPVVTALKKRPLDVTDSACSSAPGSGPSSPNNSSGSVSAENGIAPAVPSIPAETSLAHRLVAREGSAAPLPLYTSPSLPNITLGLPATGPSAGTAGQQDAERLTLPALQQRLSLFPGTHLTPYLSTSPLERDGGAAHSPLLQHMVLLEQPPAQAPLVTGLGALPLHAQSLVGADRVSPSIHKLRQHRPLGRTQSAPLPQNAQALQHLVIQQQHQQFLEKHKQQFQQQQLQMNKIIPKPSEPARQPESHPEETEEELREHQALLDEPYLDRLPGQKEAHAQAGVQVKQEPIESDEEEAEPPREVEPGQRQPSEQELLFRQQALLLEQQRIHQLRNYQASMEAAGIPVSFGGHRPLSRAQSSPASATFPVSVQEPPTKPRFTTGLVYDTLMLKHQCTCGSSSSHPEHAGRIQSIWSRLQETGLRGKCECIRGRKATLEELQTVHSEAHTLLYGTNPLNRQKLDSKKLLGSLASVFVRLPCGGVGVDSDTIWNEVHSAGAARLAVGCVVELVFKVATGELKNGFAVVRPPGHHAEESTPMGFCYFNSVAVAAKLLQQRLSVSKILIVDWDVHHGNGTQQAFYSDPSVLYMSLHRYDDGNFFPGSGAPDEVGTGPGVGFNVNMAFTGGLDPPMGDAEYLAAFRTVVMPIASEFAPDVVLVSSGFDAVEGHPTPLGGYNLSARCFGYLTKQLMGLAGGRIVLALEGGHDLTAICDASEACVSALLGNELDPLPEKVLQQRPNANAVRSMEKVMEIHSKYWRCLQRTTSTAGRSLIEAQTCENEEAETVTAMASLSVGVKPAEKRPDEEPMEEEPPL
# Sphingosine kinase 1 = Sphingosine kinase 1 (Homo sapiens, UniProt Q9NYA1); test: Inhibition of SPHK1 (unknown origin)
# Sequence of Sphingosine kinase 1 (Q9NYA1 whole entry): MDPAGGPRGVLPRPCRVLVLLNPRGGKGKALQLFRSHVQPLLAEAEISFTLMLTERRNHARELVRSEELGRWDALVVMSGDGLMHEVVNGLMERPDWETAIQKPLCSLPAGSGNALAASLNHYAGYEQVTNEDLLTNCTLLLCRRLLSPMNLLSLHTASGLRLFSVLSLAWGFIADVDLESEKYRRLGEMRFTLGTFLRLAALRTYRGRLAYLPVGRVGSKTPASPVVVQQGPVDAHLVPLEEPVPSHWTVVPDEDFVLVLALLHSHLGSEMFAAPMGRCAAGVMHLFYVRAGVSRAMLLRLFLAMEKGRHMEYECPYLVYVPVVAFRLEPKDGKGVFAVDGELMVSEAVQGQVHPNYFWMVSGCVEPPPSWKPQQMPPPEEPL
# Spike glycoprotein = Spike glycoprotein (Severe acute respiratory syndrome coronavirus 2, UniProt P0DTC2); test: Binding affinity to SARS-Cov-2 Spike protein assessed as dissociation constant
# Vasopressin V1a receptor = Vasopressin V1a receptor (Homo sapiens, UniProt P37288); test: Inhibition of Vasopressin V1A receptor (unknown origin)
smiles,measurement,setting,value
O=C(NO)c1ccc(CN2c3cc(C(F)(F)F)ccc3S(=O)(=O)C[C@H]3CCCC[C@H]32)cc1,IC50,[1],0.01 µM
same,IC50,Histone deacetylase 11,0.85 µM
same,IC50,Histone deacetylase 9,> 30 µM
same,IC50,Histone deacetylase 7,15 µM
same,IC50,Histone deacetylase 2,16 µM
same,IC50,Histone deacetylase 1,8.8 µM
same,IC50,Histone deacetylase 5,22 µM
same,IC50,Histone deacetylase 3,16 µM
same,IC50,[2],9.4 µM
same,IC50,Histone deacetylase 8,2 µM
CC1C[C@]2(C)C(NCCCNCCCCNCCCN)=Nc3ccccc3[C@]2(C)N(C)c2ccccc21 (stereo not given in full),IC50,MCF7,9.84 µM
O=C(NO)c1ccc(CN2c3ccccc3SC[C@H]3CCCC[C@H]32)cc1,IC50,[1],0.03 µM
same,IC50,Histone deacetylase 11,1.5 µM
same,IC50,Histone deacetylase 9,25 µM
same,IC50,Histone deacetylase 4,> 30 µM
same,IC50,Histone deacetylase 7,> 30 µM
same,IC50,Histone deacetylase 1,> 30 µM
same,IC50,Histone deacetylase 5,27 µM
same,IC50,[2],> 30 µM
same,IC50,Histone deacetylase 8,5.3 µM
Brc1cc2c(c3ccccc13)N1OC(C2)CC1CCc1ccccc1 (stereo not given),IC50,Sphingosine kinase 1,> 650 µM
NCCCNCCCCNCCCNC1=Nc2ccccc2CCC1,IC50,MCF7,> 50 µM
CN1CCCC(n2nc(Cc3ccc(Cl)cc3)c3ccccc3c2=O)CC1 (stereo not given) [AZELASTINE],Kd,Spike glycoprotein,0.258 µM
Cc1ccccc1C(=O)Nc1ccc(C(=O)N2CCC[C@H](N(C)C)c3ccccc32)cc1,IC50,Vasopressin V1a receptor,14 µM
CC1Cc2c(Cl)nc(-c3ccccc3)nc2N(C)c2ccc(O)cc21 (stereo not given),IC50,Sphingosine kinase 1,> 650 µM

# From ChEMBL document CHEMBL6078616, “Seven-membered N-heterocycles as approved drugs and promising leads in medicinal chemistry as well as the metal-free domino access to their scaffolds” (Eur J Med Chem, 2024)
